Data as given in patent publication US8722849B2, “Polypeptides” (Novo Nordisk A/S, priority 2011, dated 2014).
Converted amounts (≈) assume the structure as drawn. Where two headings read alike, the source gives them in different places. Starred links: 1 amine or outer side, 2 acyl side, 3 side chain; linkers in the order of their positions; H or OH if unused. Positions of bridges follow the written chain, without caps; N, C: chain ends. Residues, ends and D or L forms follow the SMILES beside them. *: point of attachment. C20 diacid = O=C(O)CCCCCCCCCCCCCCCCCCC(=O)*; C18 diacid = O=C(O)CCCCCCCCCCCCCCCCC(=O)*; γGlu = O=C(O)[C@H](CCC(=O)[*:2])N[*:1]

Key:
[1] = biological target: T1, human amylin receptor (amylin 3(a) receptor: human calcitonin receptor + RAMP-3) (Homo sapiens, UniProt O60896+P30988); experiment: Assay (II)a functional CRE-luciferase assay, human amylin receptor; assay type: cell-based; details: Table 2; BHK amylin 3(a)-receptor/CRE-luc cells
T1 construct: expressed in transfected cells; host or cells: BHK570
T1 sequence (P30988 25-474): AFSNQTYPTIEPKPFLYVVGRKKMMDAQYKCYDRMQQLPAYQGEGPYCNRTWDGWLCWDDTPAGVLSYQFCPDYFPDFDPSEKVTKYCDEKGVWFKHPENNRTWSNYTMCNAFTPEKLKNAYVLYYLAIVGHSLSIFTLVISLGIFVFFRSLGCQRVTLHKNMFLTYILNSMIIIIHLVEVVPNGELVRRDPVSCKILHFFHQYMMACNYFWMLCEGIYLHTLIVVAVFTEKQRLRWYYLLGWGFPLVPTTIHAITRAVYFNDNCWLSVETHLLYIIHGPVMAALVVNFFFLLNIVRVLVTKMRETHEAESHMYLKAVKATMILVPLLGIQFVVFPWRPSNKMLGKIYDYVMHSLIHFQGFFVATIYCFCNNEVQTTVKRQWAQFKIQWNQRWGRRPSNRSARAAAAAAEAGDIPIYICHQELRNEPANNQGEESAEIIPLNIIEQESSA
T1 sequence (O60896 24-148 partner): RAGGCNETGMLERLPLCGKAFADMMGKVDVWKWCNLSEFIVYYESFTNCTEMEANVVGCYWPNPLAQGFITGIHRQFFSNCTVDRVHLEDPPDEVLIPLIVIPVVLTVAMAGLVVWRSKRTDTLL

[2] = biological target: T2, human calcitonin receptor (Homo sapiens, UniProt P30988); experiment: Assay (II)a functional CRE-luciferase assay, human calcitonin receptor; assay type: cell-based; details: Table 7; human calcitonin (CTa) receptor
T2 construct: expressed in transfected cells; host or cells: BHK570
T2 sequence (P30988 25-474): T1 sequence (P30988 25-474)

[3] = Assay (IV) determination of solubility; assay type: physicochemical
Outline: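 Stock ~500 nmol/ml in water; 1:1 with 100 mM buffer, pH 3.0–8.0 (glycylglycine ≤5.0, bistrispropane ≥6.0); 18 h RT; spin; HPLC quantitation of soluble polypeptide.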

[4] = Assay (III) ThT fibrillation assay for physical stability; assay type: physicochemical; details: ThT fibrillation assay
Outline: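 Freshly prepared formulations, pH-adjusted, with 1 μM ThT; four or eight replicates incubated at 37 °C under 960 rpm orbital shaking. Fluorescence (ex 444/em 485 nm) read every 20 min; […]. Peptide concentration measured by RP-HPLC before and after the run.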

[5] = bistrispropane buffer, pH 6, pH 6.0, read-out: Solubility pH 6.0
[6] = bistrispropane buffer, pH 6.5, pH 6.5, read-out: Solubility pH 6.5
[7] = bistrispropane buffer, pH 7, pH 7.0, 18 hours at room temperature, Table 3, read-out: Solubility pH 7.0
[8] = bistrispropane buffer, pH 7, pH 7.0, read-out: Solubility pH 7.0
[9] = bistrispropane buffer, pH 7.5, pH 7.5, read-out: Solubility pH 7.5
[10] = bistrispropane buffer, pH 8, pH 8.0, read-out: Solubility pH 8.0
[11] = glycylglycine buffer, pH 3, pH 3.0, read-out: Solubility pH 3.0
[12] = glycylglycine buffer, pH 4, pH 4.0, 18 hours at room temperature, Table 2, read-out: Solubility pH 4.0
[13] = glycylglycine buffer, pH 4, pH 4.0, read-out: Solubility pH 4.0
[14] = glycylglycine buffer, pH 5, pH 5.0, read-out: Solubility pH 5.0

Row | EC50 [1] | EC50 [2] | solubility at 18 h [3, 5] | solubility at 18 h [3, 6] | solubility at 18 h [3, 7] | solubility at 18 h [3, 8] | solubility at 18 h [3, 9] | solubility at 18 h [3, 10] | solubility at 18 h [3, 11] | solubility at 18 h [3, 12] | solubility at 18 h [3, 13] | solubility at 18 h [3, 14] | ThT pH 4.0 lag time (h) [4] | ThT pH 4.0 lag time [4] | Compound
1 | 0.248 nM | 0.439 nM | > 200 µM | > 200 µM | > 200 µM | > 200 µM | > 200 µM | > 200 µM | > 200 µM | > 200 µM | > 200 µM | > 200 µM | 7 h |  | CC[C@H](C)[C@H](NC(=O)[C@@H]1CCCN1C(=O)CNC(=O)[C@H](Cc1ccccc1)NC(=O)[C@H](CC(N)=O)NC(=O)[C@H](CC(N)=O)NC(=O)[C@H](CO)NC(=O)[C@H](CO)NC(=O)[C@H](Cc1c[nH]cn1)NC(=O)[C@H](Cc1c[nH]cn1)NC(=O)[C@H](CC(C)C)NC(=O)[C@H](Cc1ccccc1)NC(=O)[C@H](CCC(=O)O)NC(=O)[C@H](C)NC(=O)[C@H](CC(C)C)NC(=O)[C@H](CCCNC(=N)N)NC(=O)[C@H](CCC(N)=O)NC(=O)[C@@H](NC(=O)[C@H](C)NC(=O)[C@@H]1CSSC[C@H](NC(=O)[C@H](Cc2c[nH]cn2)NC(=O)[C@H](CCC(=O)O)NC(=O)CC[C@H](NC(=O)CCCCCCCCCCCCCCCCCCC(=O)O)C(=O)O)C(=O)N[C@@H](CC(N)=O)C(=O)N[C@@H]([C@@H](C)O)C(=O)N[C@@H](C)C(=O)N[C@@H]([C@@H](C)O)C(=O)N1)[C@@H](C)O)C(=O)N[C@@H](CC(C)C)C(=O)N1CCC[C@H]1C(=O)N1CCC[C@H]1C(=O)N[C@H](C(=O)N[C@@H](CC(N)=O)C(=O)N[C@H](C(=O)NCC(=O)N[C@@H](CO)C(=O)N[C@@H](CC(N)=O)C(=O)N[C@H](C(=O)N[C@@H](Cc1ccc(O)cc1)C(N)=O)[C@@H](C)O)C(C)C)[C@@H](C)O [Example 40, N-alpha-[(S)-4-Carboxy-4-(19-carboxynonadecanoylamino)butyryl]-Glu-[His1,Glu14,His17]-pramlintide] ({C20 diacid-γGlu}-EHCNTATCATQRLAEFLHHSSNNFGPILPPTNVGSNTY-NH2; disulfide 3-8 (inferred); C-terminus assumed)
2 | 0.402 nM | 0.798 nM | 1 µM (≈ 4.71 µg/mL) | 1 µM (≈ 4.71 µg/mL) |  | 1 µM (≈ 4.71 µg/mL) | 1 µM (≈ 4.71 µg/mL) | 4 µM (≈ 18.9 µg/mL) | > 200 µM | 118 µM (≈ 556 µg/mL) | 118 µM (≈ 556 µg/mL) | 1 µM (≈ 4.71 µg/mL) | 0 h |  | CC[C@H](C)[C@H](NC(=O)[C@@H]1CCCN1C(=O)CNC(=O)[C@H](Cc1ccccc1)NC(=O)[C@H](CC(N)=O)NC(=O)[C@H](CC(N)=O)NC(=O)[C@H](CO)NC(=O)[C@H](CO)NC(=O)[C@H](Cc1c[nH]cn1)NC(=O)[C@H](Cc1c[nH]cn1)NC(=O)[C@H](CC(C)C)NC(=O)[C@H](Cc1ccccc1)NC(=O)[C@H](CCC(=O)O)NC(=O)[C@H](C)NC(=O)[C@H](CC(C)C)NC(=O)[C@H](CCCNC(=N)N)NC(=O)[C@H](CCC(N)=O)NC(=O)[C@@H](NC(=O)[C@H](C)NC(=O)[C@@H]1CSSC[C@H](NC(=O)[C@H](CCCCN)NC(=O)[C@H](CCC(=O)O)NC(=O)[C@H](CCC(=O)O)NC(=O)CC[C@H](NC(=O)CCCCCCCCCCCCCCCCCCC(=O)O)C(=O)O)C(=O)N[C@@H](CC(N)=O)C(=O)N[C@@H]([C@@H](C)O)C(=O)N[C@@H](C)C(=O)N[C@@H]([C@@H](C)O)C(=O)N1)[C@@H](C)O)C(=O)N[C@@H](CC(C)C)C(=O)N1CCC[C@H]1C(=O)N1CCC[C@H]1C(=O)N[C@H](C(=O)N[C@@H](CC(N)=O)C(=O)N[C@H](C(=O)NCC(=O)N[C@@H](CO)C(=O)N[C@@H](CC(N)=O)C(=O)N[C@H](C(=O)N[C@@H](Cc1ccc(O)cc1)C(N)=O)[C@@H](C)O)C(C)C)[C@@H](C)O [Example 41, N-alpha-[(S)-4-Carboxy-4-(19-carboxynonadecanoylamino)butyryl]-Glu-Glu-[Glu14,His17]-pramlintide] ({C20 diacid-γGlu}-EEKCNTATCATQRLAEFLHHSSNNFGPILPPTNVGSNTY-NH2; disulfide 4-9 (inferred))
3 | 0.0624 nM | 0.265 nM | 188 µM (≈ 886 µg/mL) | 48 µM (≈ 226 µg/mL) |  | 42 µM (≈ 198 µg/mL) | 134 µM (≈ 631 µg/mL) | > 200 µM | > 200 µM | > 200 µM | > 200 µM | > 200 µM | 36.7 h | 36.7 h | CC[C@H](C)[C@H](NC(=O)[C@@H]1CCCN1C(=O)CNC(=O)[C@H](Cc1ccccc1)NC(=O)[C@H](CC(N)=O)NC(=O)[C@H](CC(N)=O)NC(=O)[C@H](CO)NC(=O)[C@H](CO)NC(=O)[C@H](Cc1c[nH]cn1)NC(=O)[C@H](Cc1c[nH]cn1)NC(=O)[C@H](CC(C)C)NC(=O)[C@H](Cc1ccccc1)NC(=O)[C@H](CCC(=O)O)NC(=O)[C@H](C)NC(=O)[C@H](CC(C)C)NC(=O)[C@H](CCCNC(=N)N)NC(=O)[C@H](CCC(N)=O)NC(=O)[C@@H](NC(=O)[C@H](C)NC(=O)[C@@H]1CSSC[C@H](NC(=O)[C@H](Cc2c[nH]cn2)NC(=O)[C@H](Cc2c[nH]cn2)NC(=O)[C@H](Cc2c[nH]cn2)NC(=O)CC[C@H](NC(=O)CCCCCCCCCCCCCCCCC(=O)O)C(=O)O)C(=O)N[C@@H](CC(N)=O)C(=O)N[C@@H]([C@@H](C)O)C(=O)N[C@@H](C)C(=O)N[C@@H]([C@@H](C)O)C(=O)N1)[C@@H](C)O)C(=O)N[C@@H](CC(C)C)C(=O)N1CCC[C@H]1C(=O)N1CCC[C@H]1C(=O)N[C@H](C(=O)N[C@@H](CC(N)=O)C(=O)N[C@H](C(=O)NCC(=O)N[C@@H](CO)C(=O)N[C@@H](CC(N)=O)C(=O)N[C@H](C(=O)N[C@@H](Cc1ccc(O)cc1)C(N)=O)[C@@H](C)O)C(C)C)[C@@H](C)O [Example 45, N-alpha-[(S)-4-Carboxy-4-(17-carboxyheptadecanoylamino)butyryl]-His-His-[His1,Glu14,His17]-pramlintide] ({C18 diacid-γGlu}-HHHCNTATCATQRLAEFLHHSSNNFGPILPPTNVGSNTY-NH2; disulfide 4-9 (inferred); C-terminus assumed)
4 | 0.059 nM | 0.258 nM | 168 µM (≈ 768 µg/mL) | 87 µM (≈ 398 µg/mL) | 118 µM (≈ 540 µg/mL) | 118 µM (≈ 540 µg/mL) | > 200 µM | > 200 µM | > 200 µM | > 200 µM | > 200 µM | > 200 µM | 6 h |  | CC[C@H](C)[C@H](NC(=O)[C@@H]1CCCN1C(=O)CNC(=O)[C@H](Cc1ccccc1)NC(=O)[C@H](CC(N)=O)NC(=O)[C@H](CC(N)=O)NC(=O)[C@H](CO)NC(=O)[C@H](CO)NC(=O)[C@H](Cc1c[nH]cn1)NC(=O)[C@H](Cc1c[nH]cn1)NC(=O)[C@H](CC(C)C)NC(=O)[C@H](Cc1ccccc1)NC(=O)[C@H](CCC(=O)O)NC(=O)[C@H](C)NC(=O)[C@H](CC(C)C)NC(=O)[C@H](CCCNC(=N)N)NC(=O)[C@H](CCC(N)=O)NC(=O)[C@@H](NC(=O)[C@H](C)NC(=O)[C@@H]1CSSC[C@H](NC(=O)[C@H](Cc2c[nH]cn2)NC(=O)[C@H](Cc2c[nH]cn2)NC(=O)CC[C@H](NC(=O)CCCCCCCCCCCCCCCCC(=O)O)C(=O)O)C(=O)N[C@@H](CC(N)=O)C(=O)N[C@@H]([C@@H](C)O)C(=O)N[C@@H](C)C(=O)N[C@@H]([C@@H](C)O)C(=O)N1)[C@@H](C)O)C(=O)N[C@@H](CC(C)C)C(=O)N1CCC[C@H]1C(=O)N1CCC[C@H]1C(=O)N[C@H](C(=O)N[C@@H](CC(N)=O)C(=O)N[C@H](C(=O)NCC(=O)N[C@@H](CO)C(=O)N[C@@H](CC(N)=O)C(=O)N[C@H](C(=O)N[C@@H](Cc1ccc(O)cc1)C(N)=O)[C@@H](C)O)C(C)C)[C@@H](C)O [Example 47, N-alpha-[(S)-4-Carboxy-4-(17-carboxyheptadecanoylamino)butyryl]-His-[His1,Glu14,His17]-pramlintide] ({C18 diacid-γGlu}-HHCNTATCATQRLAEFLHHSSNNFGPILPPTNVGSNTY-NH2; disulfide 3-8 (inferred); C-terminus assumed)
